The values below come from the NIST ThermoML archive (doi:10.1021/je0501890).

± gives the expanded uncertainty stated by the source.

For the series the following is noted: 298.15 K; 101.33 kPa; Liquid.
For `CC(Cl)(Cl)Cl` [1,1,1-trichloroethane], the mass density (commonly the mass of a sample divided by its volume) came out at 1329.55 ± 1.1 kg/m3 and the viscosity (in general, the internal friction of a fluid under shear) worked out at 0.789 ± 0.011 mPa·s.

As to `ClC(Cl)C(Cl)Cl` [1,1,2,2-tetrachloroethane], the mass density was determined as 1586.65 ± 1.6 kg/m3 and the viscosity was 1.431 ± 0.019 mPa·s.

For `ClC(Cl)=C(Cl)Cl` [tetrachloroethene], the mass density was 1613.2 ± 1.6 kg/m3 and the viscosity is given as 0.839 ± 0.012 mPa·s.

For the molecule `ClCCCl` [1,2-dichloroethane], the mass density worked out at 1245.64 ± 0.92 kg/m3 and the viscosity is 0.776 ± 0.011 mPa·s.

Regarding `ClC=C(Cl)Cl` [trichloroethene], the mass density is 1455.65 ± 1.3 kg/m3 and the viscosity is 0.536 ± 0.008 mPa·s.

Take `CCCCCCCO` [heptan-1-ol]: the mass density stood at 818.48 ± 0.68 kg/m3 and the viscosity is 5.818 ± 0.079 mPa·s.
